# In patent US9687483B2, “Treatment of cerebral cavernous malformations and cerebral aneurysms with Rho kinase inhibitors” (priority 2015, dated 2017):
# Several values for one entry are separate records, joined by “and”; a condition that tells them apart may be missing. Equal entries are not always repeated. Where two headings read alike, the source gives them in different places.
# Key:
# [1] = target: ROCK I recombinantly-produced kinase domain (Homo sapiens (Human), UniProt Q13464); details: read-out: ROCK I IC50; ATP 10 μM, substrate 200 nM; Fasudil mean ± SD of 3-4 experiments; BA-1049 two individual experiments
# cadherin in HUVEC cells = assay: Cadherin expression in HUVEC, Western blot; assay type: cell-based, human; details: 50 μM, 24 hr, vs control; p<0.05
# [2] = target: ROCK II recombinantly-produced kinase domain (Homo sapiens (Human), UniProt O75116); details: read-out: ROCK II IC50; ATP 10 μM, substrate 200 nM; Fasudil mean ± SD of 3-4 experiments; BA-1049 two individual experiments
# [3] = tested on: ROCK II recombinantly-produced kinase domain; details: ROCK II versus ROCK I
# HUVEC cells [4] = assay: In vitro endothelial tubulogenesis assay on ECMatrix; assay type: cell-based, human; details: 10 or 50 μM (or μg/mL); 6 hr to 16 hr; vs untreated cells
# HUVEC cells [5] = tested on: HUVEC cells
# occludin in HUVEC cells = assay: Occludin expression in HUVEC, Western blot; assay type: cell-based, human; details: for Effect on junctional protein expression at lower dose: 25 μM
# HUVEC cells [6] = assay: Endothelial cell actin cytoskeleton, Rhodamine-phalloidin staining; assay type: cell-based, human; details: 10 μM or 25 μM
# Caco-2 cell monolayers [7] = assay: Caco-2 permeability assay
# Caco-2 cell monolayers [8] = details: for Transport mechanism across Caco-2 monolayers: from B to A/A to B Papp ratios; for Caco-2 cell permeability (classification): from measured Papp values
# [9] = tested on: induced intracranial saccular aneurysms in Sprague Dawley rats; assay: Reduction of prevalence/size of existing aneurysms in vivo; design: species or system rat
# [10] = tested on: induced intracranial saccular aneurysms in Sprague Dawley rats; assay: Prophylactic reduction of intracranial aneurysm burden in vivo; design: species or system rat; details: vs control rats
# in vitro [11] = details: human, Caco-2, pH 7.4
# [12] = known values for controls; cited from earlier work
# in vitro [13] = details: human, plasma
# [14] = human plasma, 24 hr dialysis, 37° C., mean of 2 replicates
# [15] = both, human, 24 h, 35 µM, pH 7.4
# [16] = both, human, plasma, 24 h, 35 µM, pH 7.4
# Chain of ROCK I recombinantly-produced kinase domain (Q13464 76-338): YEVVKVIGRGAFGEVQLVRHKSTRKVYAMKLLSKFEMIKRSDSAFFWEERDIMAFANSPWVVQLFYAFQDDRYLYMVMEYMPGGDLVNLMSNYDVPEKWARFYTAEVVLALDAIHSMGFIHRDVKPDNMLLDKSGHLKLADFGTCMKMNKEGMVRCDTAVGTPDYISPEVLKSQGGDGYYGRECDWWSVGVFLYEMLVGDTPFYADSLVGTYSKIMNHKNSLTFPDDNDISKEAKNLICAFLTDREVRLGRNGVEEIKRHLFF
structure (smiles),measurement,setting,value
CC(N)C1CCN(S(=O)(=O)c2cccc3cnccc23)CC1.Cl.Cl (racemic) [BA-1049],IC50,[1],21000 nM
same,Cadherin increase,cadherin in HUVEC cells,1.2 fold
same,IC50,[2],1600 nM and 940 nM
same,Selectivity for Rock II,[3],13.1 -fold
same,Endothelial cell tube formation,HUVEC cells [4],some tubes are visible but are not always closed and are thin
same,Disruption of proliferation compared with Fasudil at a given concentration,HUVEC cells [5]; 72 hr,did not disrupt proliferation to the same extent as Fasudil
same,Proliferation of endothelial cells,HUVEC cells [5]; 72 hr incubation,reduced proliferation
same,Concentration at which decrease in cell proliferation appears,"HUVEC cells [5]; 72 hr, p<0.05 or p<0.01",1 µM
same,Effect on junctional protein expression at lower dose,occludin in HUVEC cells,no significant effect
same,Occludin increase,"occludin in HUVEC cells; 50 μM, 24 hr, vs control, p<0.05",1.3 fold
same,Effect on actin stress fibers,HUVEC cells [6],disrupted stress fibers
same,Effect on junctional (peripheral) actin distribution,HUVEC cells [6],little to no effect
same,Bound,human plasma proteins; [14],7.26%
same,Unbound,human plasma proteins; [14],92.7%
same,B-A/A-B Papp Ratio,Caco-2 cell monolayers [7],1.31
same,Papp A to B,"Caco-2 cell monolayers [8]; apical to basolateral, 60 min, pH 7.4",10.7 ×10⁻⁶ cm/s
same,Papp B to A,"Caco-2 cell monolayers [8]; basolateral to apical, 60 min, pH 7.4",14.1 ×10⁻⁶ cm/s
same,Transport mechanism across Caco-2 monolayers,Caco-2 cell monolayers [8],passively transported
same,Caco-2 cell permeability (classification),Caco-2 cell monolayers [8],intermediate to high
O=S(=O)(c1cccc2cnccc12)N1CCCNCC1 [Fasudil],Cadherin increase,cadherin in HUVEC cells,1.2 fold
same,Endothelial cell tube formation,HUVEC cells [4],some tubes are visible but are not always closed and are thin
same,Total number of saccular aneurysms in 6 mo and 8 mo rats,[9]; vs baseline (4 mo) results,reduces
same,Average aneurysm size and area,[9]; vs control rats,reduces
same,Level of inflammatory invasion in a given aneurysm,[9]; vs control rats,reduces
same,Number of iron deposits near a given aneurysm,[9]; vs control rats,reduces
same,Rho kinase activity in the endothelial/smooth muscle cells of the aneurysm wall,[9]; vs control rats,reduces
same,Total number of saccular aneurysms,[9]; vs control rats,reduces
same,Effect on junctional protein expression at lower dose,occludin in HUVEC cells,no significant effect
same,Occludin decrease,"occludin in HUVEC cells; 50 μM, 24 hr, vs control, p<0.001",50%
same,Effect on junctional (peripheral) actin distribution,HUVEC cells [6],disrupted the peripheral actin to a greater extent than the stress fibers
same,Bound,human plasma proteins; [15],19.2%
same,Unbound,human plasma proteins; [16],81.8%
same,Average aneurysm size and area,[10],reduces
same,Level of inflammatory invasion in a given aneurysm,[10],reduces
same,Number of iron deposits near a given aneurysm,[10],reduces
same,Rho kinase activity in the endothelial and smooth muscle cells of the aneurysm wall,[10],reduces
same,Total number of saccular aneurysms,[10]; daily or weekly dose for 2 mo,reduces
same,Transport mechanism across Caco-2 monolayers,Caco-2 cell monolayers [8],passively transported
same,Caco-2 cell permeability (classification),Caco-2 cell monolayers [8],high
same,"Papp A→B at 60 min, 35 µM",in vitro [11],18.9 ×10⁻⁶ cm/s
same,"Papp B→A at 60 min, 35 µM",in vitro [11],18.5 ×10⁻⁶ cm/s
"OC[C@@H](O)[C@@H](O)[C@H](O)[C@H](O)CO [[^3H]-Mannitol, D-[1-^3H(N)]Mannitol]",% absorption in humans,[12],15%
same,Papp A→B at 60 min,in vitro [11],2.62 ± 0.81 ×10⁻⁶ cm/s
same,"Papp A→B at 60 min, 35 µM",in vitro [11],1.01 ± 0.146 ×10⁻⁶ cm/s
same,Papp B→A at 60 min,in vitro [11],1.36 ± 0.362 ×10⁻⁶ cm/s
same,"Papp B→A at 60 min, 35 µM",in vitro [11],0.821 ± 0.362 ×10⁻⁶ cm/s
same,"efflux ratio at 60 min, 35 µM",in vitro [11],0.81
"CC(C)NC[C@H](O)COc1cccc2ccccc12 [[^3H]-Propranolol, L-(−)-[4-^3H]propranolol]",Bound,human plasma proteins; [15],91.3%
same,Unbound,human plasma proteins; [16],8.67%
same,fraction unbound,in vitro [13],0.121
same,Papp A→B at 60 min,in vitro [11],32.3 ± 5.4 ×10⁻⁶ cm/s
same,"Papp A→B at 60 min, 35 µM",in vitro [11],36 ± 1.65 ×10⁻⁶ cm/s
same,Papp B→A at 60 min,in vitro [11],31 ± 5.27 ×10⁻⁶ cm/s
same,"Papp B→A at 60 min, 35 µM",in vitro [11],27.8 ± 3.68 ×10⁻⁶ cm/s
